# Experimental data taken from US5496809A, “Stable solutions of rebeccamycin analog” (priority 1989, dated 1996).
# Counter-ions that a name gives are not always drawn. Like-named read-outs stand apart in the source and are kept apart here.
# Columns and labels:
# [1] = test system: transplanted mouse leukemia P-338; settings: for % T/C (median survival time) / MST (median survival time): IV, 5 daily injections; for AWC (average weight change at Day 5): mouse, in vivo, iv
# Source text: (§1) The screening procedures involved administration of test compound intraperitonially (IP) to CDF1 female mice (18 to 22 grams) infected with 1×10^6 ascites cells intraperitonially, and intravenously (IV) to CDF1 female mice (18 to 22 Grams) infected with 1×10 ascites cells intravenously. Drug therapy was started on Day 1 (date of implant) and consisted of 1 injection per day for 5 successive days. […] Mitomycin C is included for comparison purposes.
# [2] = test system: transplanted mouse leukemia P-338
# Source text: as §1
# [3] = Solubility in water; type: physicochemical
# Source text: The compound is referred to in Kaneko et al U.S. Pat. No. 4,785,085 as 6-(2-diethylaminoethyl)rebeccmycin and its preparation is described in Example 1 of the patent and its effectiveness to inhibit growth of tumors in experimental animal systems is shown in Table 3 of the patent. […] Instead, it forms a suspension.
# Besides being stable at room temperature, the solutions herein have enhanced solubility at low temperatures, e.g., refrigeration temperatures or cold conditions encountered during shipping or storage, etc.
# Pharmaceutically acceptable acid components (c) which meet this solubility criterion include, for example, L-(+)-tartaric, D,L-malic, L-(-)-malic, citric, L-(+)-lactic, lactobionic, methanesulfonic, phosphoric, pyroglutamic, succinic and sulfuric acids. The most preferred acid of these is L-(+)-tartaric acid.
# [4] = Long term physical stability of aqueous solutions at room temperature; type: physicochemical; settings: one molar equivalent of acid; period less than 2 years at room temperature
# Source text: These unexpected physical instabilities include gelling, precipitation, cloudiness, and formation of liquid crystalline phases which render solutions of the crystalline salts unsuitable for practical use as, or for dilution with water to provide, injectable solutions.
# [5] = IP, 4.8 mg/kg/inj, 5 daily injections
structure (smiles),measurement,setting,value
CO[C@@]12[C@H](COC(N)=O)C3=C(C(=O)C(C)=C(N)C3=O)N1C[C@@H]1N[C@@H]12 [Mitomycin C],% T/C (median survival time),[1]; 1.6 mg/kg/inj,127%
same,MST (median survival time),[1]; 1.6 mg/kg/inj,9.5 days
same,% T/C (median survival time),[1]; 4.8 mg/kg/inj,160%
same,MST (median survival time),[1]; 4.8 mg/kg/inj,12.0 days
same,AWC (average weight change at Day 5),[1]; 1.6 mg/kg,0.4 Grams
same,AWC (average weight change at Day 5),[1]; 4.8 mg/kg,-0.1 Grams
same,% T/C (median survival time),[2]; [5],205%
same,MST (median survival time),[2]; [5],20.5 days
same,AWC (average weight change at Day 5),"[2]; mouse, in vivo, ip, 4.8 mg/kg",-0.6 Grams
CCN(CC)CCN1C(=O)c2c(c3c4cccc(Cl)c4n([C@@H]4O[C@H](CO)[C@@H](OC)[C@H](O)[C@H]4O)c3c3[nH]c4c(Cl)cccc4c23)C1=O,solubility in water (in words),[3]; added to water to form an aqueous injectable solution,not sufficiently soluble in water
CCN(CC)CCN1C(=O)c2c(c3c4cccc(Cl)c4n([C@@H]4O[C@H](CO)[C@@H](OC)[C@H](O)[C@H]4O)c3c3[nH]c4c(Cl)cccc4c23)C1=O [hydrochloride salt],physical instability / shelf stability of solutions of acid addition salts (in words),[4],do not form aqueous solutions which are sufficiently shelf stable
CCN(CC)CCN1C(=O)c2c(c3c4cccc(Cl)c4n([C@@H]4O[C@H](CO)[C@@H](OC)[C@H](O)[C@H]4O)c3c3[nH]c4c(Cl)cccc4c23)C1=O [succinic],solubility,"[3]; water, salt formed from free base and a molar equivalent of acid, room temperature, read-out: solubility of acid addition salt in water",> 25 mg/mL
